In ChEMBL document CHEMBL5608113, “Targeting of CAF-induced therapy resistance in CRC organoid-stroma co-cultures” (2024):
Values joined by “and” are separate entries in the source; they are usually repeats but may differ in a detail not shown here. Equal entries are not always repeated.

Legend:
Format in all cases: functional, Homo sapiens
Details in all cases: for viability at 10 µM / viability at 1 µM: Homo sapiens, read-out: Cell Viability; for viability at 1 µM: Concentration 1 uM
Colon cancer organoid [1] = test: Targeting of F14 CAF-induced therapy resistance in O14 CRC organoid-stroma co-culture. Cell viability is reported with Gefitinib.
Colon cancer organoid [2] = test: Targeting of F14 CAF-induced therapy resistance in O23 CRC organoid-stroma co-culture. Cell viability is reported with SN-38.
Colon cancer organoid [3] = test: Targeting of F14 CAF-induced therapy resistance in O14 CRC organoid-stroma co-culture. Cell viability is reported without Gefitinib.
Colon cancer organoid [4] = test: Targeting of F14 CAF-induced therapy resistance in O23 CRC organoid-stroma co-culture. Cell viability is reported without Gefitinib.
Colon cancer organoid [5] = test: Targeting of F14 CAF-induced therapy resistance in O23 CRC organoid-stroma co-culture. Cell viability is reported with Gefitinib.

SMILES | viability at 10 µM (Colon cancer organoid [1]; Concentration 10 uM) | viability at 10 µM (Colon cancer organoid [2]; Concentration 10 uM) | viability at 10 µM (Colon cancer organoid [3]; Concentration 10 uM) | viability at 10 µM (Colon cancer organoid [4]; Concentration 10 uM) | viability at 10 µM (Colon cancer organoid [5]; Concentration 10 uM) | further results
Cc1ccc(NC(=O)Nc2cc(C(F)(F)F)ccc2F)cc1Nc1ccc2c(c1)NC(=O)/C2=C\c1ccc[nH]1 | 40% | 74.2% | 121% | 117% | 82.1% | 
COc1ccccc1S(=O)(=O)Nc1ccc2c(c1)CN(C)C(=O)N2 | 57.5% | 73.2% | 101% | 105% | 53.9% | 
CCCCNc1ncc(-c2ccc(CN3CCOCC3)cn2)c(N[C@H]2CC[C@H](O)CC2)n1 | 3.91% | 28.9% | 9.12% | 18.1% | 12% | 
CCOC(=O)Nc1cc(-c2ccc(C)c(NS(C)(=O)=O)c2)nn2c(C)nnc12 | 14% | 79.5% | 59.2% | 146% | 63.4% | 
COc1ccccc1C(=O)Nc1cc2c(cc1N1CCCC1)n(C)c(=O)n2C | 46.1% | 84.2% | 114% | 115% | 79% | 
COc1ccc(CCc2nc3cc(-c4c(C)noc4C)ccc3n2C[C@H](C)N2CCOCC2)cc1Cl | 61.4% | 78.6% | 121% | 91.4% | 47.7% | 
COc1cc(C#N)ccc1S(=O)(=O)Nc1ccc2c(c1)cc(C)c(=O)n2C | 66.9% | 127% | 101% | 149% | 86% | 
O=C(/C=C/N1C[C@H]2C[C@@H]1CN2c1ccccn1)c1ccccc1O | 70.1% | 45.4% | 109% | 77.2% | 38.6% | 
COc1cc2c(cc1NS(=O)(=O)c1ccc(Br)cc1C)n(C)c(=O)n2C | 57.4% | 117% | 86.7% | 169% | 69.8% | 
CCCS(=O)(=O)c1nc(NC2CC2)cc(-c2ccc3c(ccn3C3CC(C)(C)NC(C)(C)C3)c2)n1 | 49.6% | 77.1% |  |  | 68.4% | Cell Viability (Colon cancer organoid [1]; Concentration 10 uM, 10 µM): 57.1178%; Cell Viability (Colon cancer organoid [2]; Concentration 10 uM, 10 µM): 68.6533%; Cell Viability (Colon cancer organoid [3]; Concentration 10 uM, 10 µM): 91.0371% and 136.896%; Cell Viability (Colon cancer organoid [4]; Concentration 10 uM, 10 µM): 73.362% and 105.525%; Cell Viability (Colon cancer organoid [5]; Concentration 10 uM, 10 µM): 66.056%
CCC(=O)N1CCOc2c(cc(-c3ccc(OC)c(OC)c3)cc2OCC2CCCN(C)C2)C1 (stereo not drawn) | 74.7% | 96.1% | 102% | 119% | 60.4% | 
Cn1cc(CCn2cnc(-c3cnn(C)c3)c2-c2ccc(C#N)cc2)cn1 | 71.4% | 92.5% | 105% | 141% | 63.6% | 
CCCCN(CCCC)C(=O)CN1C[C@H](c2cc(OC)c3c(c2)OCO3)[C@@H](C(=O)O)[C@@H]1CC(C)(C)CCC |  |  |  |  |  | viability at 1 µM (Colon cancer organoid [1]): 44.1%; viability at 1 µM (Colon cancer organoid [2]): 115%; viability at 1 µM (Colon cancer organoid [3]): 125%; viability at 1 µM (Colon cancer organoid [4]): 145%; viability at 1 µM (Colon cancer organoid [5]): 50%
NC1(c2ccc(-c3nc4c(O)ccnn4c3-c3ccccc3)cc2)CCC1 |  |  |  |  |  | viability at 1 µM (Colon cancer organoid [1]): 49.5%; viability at 1 µM (Colon cancer organoid [2]): 65%; viability at 1 µM (Colon cancer organoid [3]): 98.8%; viability at 1 µM (Colon cancer organoid [4]): 122%; viability at 1 µM (Colon cancer organoid [5]): 69.1%
CCNC(=O)c1cc2c(N3CCOCC3C)ccnc2[nH]1 (stereo not drawn) | 55.4% | 97.3% | 130% | 156% | 56.4% | 
COc1cccc2c1C(=O)c1c(O)c3c(c(O)c1C2=O)CC(O)(C(=O)CO)CC3OC1CC(N)C(O)C(C)O1 (stereo not drawn) | 0.921% | 5.38% | 1.66% | 3.9% | 1.62% | 
